From patent US11045457B2, “Piperidinyl-3-(aryloxy)propanamides and propanoates” (priority 2018, dated 2021) come the findings set out here.

Each structure is given as a SMILES string.

SSTR4, sequence (P31391 whole entry): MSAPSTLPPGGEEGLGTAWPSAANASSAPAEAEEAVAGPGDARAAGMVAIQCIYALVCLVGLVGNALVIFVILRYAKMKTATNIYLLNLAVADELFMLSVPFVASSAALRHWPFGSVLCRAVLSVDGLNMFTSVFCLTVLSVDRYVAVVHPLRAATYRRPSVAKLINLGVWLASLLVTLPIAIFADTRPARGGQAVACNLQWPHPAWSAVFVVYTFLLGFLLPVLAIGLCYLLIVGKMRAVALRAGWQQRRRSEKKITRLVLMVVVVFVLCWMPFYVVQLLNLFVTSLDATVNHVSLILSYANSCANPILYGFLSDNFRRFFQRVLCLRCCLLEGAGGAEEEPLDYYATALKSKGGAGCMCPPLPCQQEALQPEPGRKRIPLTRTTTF

The first assay addresses SSTR4 (Homo sapiens (Human), UniProt P31391). The experiment in a line: Inhibition of forskolin stimulated cAMP in CHO-K1 cells overexpressing SSTR4. It counts as cell-based.
Conditions: not given
The procedure:
Inhibition of Forskolin Stimulated cAMP in Cells Overexpressing SSTR4
This cell-based assay measures the ability of compounds to inhibit forskolin stimulated cAMP in CHO-K1 cells overexpressing SSTR4. CHO-K1 cells overexpressing SSTR4 (CHO-SSTR4) are purchased from DiscoveRx (product code 95-0059C2). The CHO-SSTR4 cells are maintained in F12K media with 10% Fetal Bovine Serum (Hyclone), 1% Pen/Strep (Life Technologies), and 800 μg/mL G418 (Life Technologies). […] The next day, the culture media is removed from the cells and the cells are washed (added then removed) with Kreb's Ringer Buffer (ZenBio, KRB-1000 mL). […] The cells are incubated in […] for 30 minutes at room temperature. Cellular cAMP levels are detected with a HTRF LANCE Ultra cAMP kit (Perkin Elmer, catalog number TRF0264).
The assay is performed in accordance with the manufacturer's instructions. Five μL of diluted Eu-W8044 labeled streptavidin (dilution: 1:50 in cAMP Detection Buffer) is added to each well. Then 5 μL of diluted biotin cAMP (dilution: 1:150 in cAMP Detection Buffer) is added to each well. The plates are covered and allowed to incubate for 60 minutes at room temperature on a shaker. […] The pEC50 values are generated using Activity Base for Screening Data Management.
On to `Cc1cnc(OCC(C)(C)C(=O)N[C@@H]2CCN(C)C[C@H]2C)c(C)c1` (single isomer, unassigned) [Example 140], for which the “SSTR4 Activity pEC50” value stood at 6.2.
As to `Cc1cc(C(F)(F)F)cnc1OCC(C)(C)C(=O)NC1CCN(C)CC1` [Example 91, 2,2-dimethyl-3-((3-methyl-5-(trifluoromethyl)pyridin-2-yl)oxy)-N-(1-methylpiperidin-4-yl)propanamide], the “SSTR4 Activity pEC50” value is given as 6.0.
Still for that read-out and setting: to `CN1CCC(NC(=O)C(C)(C)COc2ncccc2C(F)(F)F)CC12CC2` (stereo not shown) [Example 175, 2,2-dimethyl-N-(4-methyl-4-azaspiro[2.5]octan-7-yl)-3-((3-(trifluoromethyl)pyridin-2-yl)oxy)propanamide] belongs 6.2.
For the compound `Cc1c(C#N)cccc1OCC(C)(C)C(=O)NC1CCN(C)CC1` [Example 75, 3-(3-cyano-2-methylphenoxy)-2,2-dimethyl-N-(1-methylpiperidin-4-yl)propanamide], the “SSTR4 Activity pEC50” value was found to be 5.5.
Turning to `Cc1cc(C2CC2)cnc1OCC(C)(C)C(=O)NC1CCN(C)CC1` [Example 8, 3-((5-cyclopropyl-3-methylpyridin-2-yl)oxy)-2,2-dimethyl-N-(1-methylpiperidin-4-yl)propanamide], the “SSTR4 Activity pEC50” value stood at 7.0.
In the case of `CN1CCC(NC(=O)C(C)(C)COc2ncccc2OC(F)(F)F)CC12CC2` (stereo not shown) [Example 174, 2,2-dimethyl-N-(4-methyl-4-azaspiro[2.5]octan-7-yl)-3-((3-(trifluoromethoxy)pyridin-2-yl)oxy)propanamide], the “SSTR4 Activity pEC50” value is listed as 7.0.
Still for that read-out and setting: to `CCC1CC(NC(=O)C(C)(C)COc2ncccc2OC(F)(F)F)CCN1C` (stereo not shown) [Example 146, N-(2-ethyl-1-methylpiperidin-4-yl)-2,2-dimethyl-3-((3-(trifluoromethoxy)pyridin-2-yl)oxy)propanamide] belongs 6.7.
On the same count and under the same terms, to `CN1CCC(NC(=O)C(C)(C)COc2ncccc2C(F)(F)F)C(C)(C)C1` (stereo not shown) [Example 112, 2,2-dimethyl-3-((3-(trifluoromethyl)pyridin-2-yl)oxy)-N-(1,3,3-trimethylpiperidin-4-yl)propanamide] belongs 6.1.
Still for that read-out and setting: to `CN1CCC(NC(=O)C(C)(C)COc2cccc(F)c2)CC1` [Example 203, 3-(3-fluorophenoxy)-2,2-dimethyl-N-(1-methylpiperidin-4-yl)propanamide] belongs 7.1; to `CN1CCC(NC(=O)C(C)(C)COc2ncccc2C(F)(F)F)C(F)C1` (stereo not shown) [Example 113, N-(3-fluoro-1-methylpiperidin-4-yl)-2,2-dimethyl-3-((3-(trifluoromethyl)pyridin-2-yl)oxy)propanamide], 5.9.
In the case of `CN1CC[C@@H](NC(=O)C(C)(C)COc2ncccc2C(F)(F)F)[C@H](c2ccccc2)C1` (relative stereo) [Example 164, 2,2-dimethyl-N-(trans-1-methyl-3-phenylpiperidin-4-yl)-3-((3-(trifluoromethyl)pyridin-2-yl)oxy)propanamide], the “SSTR4 Activity pEC50” value is recorded as 6.6.
Same read-out and setting: to `CN1CCC(NC(=O)C(C)(C)COc2ncccc2C(F)F)CC1` [Example 90, 3-((3-(difluoromethyl)pyridin-2-yl)oxy)-2,2-dimethyl-N-(1-methylpiperidin-4-yl)propanamide] belongs 6.6.
Still for that read-out and setting: to `C[C@H]1CN(C)CC[C@@H]1NC(=O)C(C)(C)COc1ccccc1Cl` [Example 193, 3-(2-chlorophenoxy)-N-((3S,4S)-1,3-dimethylpiperidin-4-yl)-2,2-dimethylpropanamide] belongs 8.9.
On the same count and under the same terms, the result for `CCc1ccccc1OCC(C)(C)C(=O)NC1CN(C)CC1c1ccccc1` (stereo not shown) [Example 97, 3-(2-ethylphenoxy)-2,2-dimethyl-N-(1-methyl-4-phenylpyrrolidin-3-yl)propanamide] reads 7.9; that for `CCC1CC(NC(=O)C(C)(C)COc2ncccc2C(F)(F)F)CCN1C` (stereo not shown) [Example 137, N-(2-ethyl-1-methylpiperidin-4-yl)-2,2-dimethyl-3-((3-(trifluoromethyl)pyridin-2-yl)oxy)propanamide], 6.7.
As to `CN1CC[C@@H](CNC(=O)C(C)(C)COc2ncccc2C(F)(F)F)C1` [Example 37, (S)-2,2-dimethyl-N-((1-methylpyrrolidin-3-yl)methyl)-3-((3-(trifluoromethyl)pyridin-2-yl)oxy)propanamide], the “SSTR4 Activity pEC50” value is given as 6.3.

Staying with this assay, now noted: read-out: SSTR4 Activity pEC50 (converted).
With `CN1C[C@@H](NC(=O)C(C)(C)COc2ncccc2C2CC2)[C@H](c2ccc(Cl)cc2)C1` (relative stereo) [Example 94, trans-N-(4-(4-chlorophenyl)-1-methylpyrrolidin-3-yl)-3-((3-cyclopropylpyridin-2-yl)oxy)-2,2-dimethylpropanamide], the EC50 was 20 nM.
As to `C[C@@H]1CN(C)CC[C@H]1NC(=O)C(F)(F)COc1ncccc1C1CC1` (relative stereo) [Example 192, trans-3-((3-cyclopropylpyridin-2-yl)oxy)-N-(1,3-dimethylpiperidin-4-yl)-2,2-difluoropropanamide], the EC50 was 12.6 nM.
Consider `C[C@H]1C[C@H](NC(=O)C(C)(C)COc2ncccc2C(F)(F)F)CN1C` (relative stereo) [Example 133, trans-N-(1,5-dimethylpyrrolidin-3-yl)-2,2-dimethyl-3-((3-(trifluoromethyl)pyridin-2-yl)oxy)propanamide], for which the EC50 was 631 nM.
The same measure, in the same setting: to `CN1CC[C@@H](c2cnn(C)c2)[C@H](NC(=O)C(C)(C)COc2ncccc2C(F)(F)F)C1` (relative stereo) [Example 169, 2,2-dimethyl-N-(trans-1-methyl-4-(1-methyl-1H-pyrazol-4-yl)piperidin-3-yl)-3-((3-(trifluoromethyl)pyridin-2-yl)oxy)propanamide] belongs 251 nM; to `CCO[C@@H]1CN(C)C[C@H]1NC(=O)C(C)(C)COc1ccccc1CC` (relative stereo) [Example 95, trans-N-(4-ethoxy-1-methylpyrrolidin-3-yl)-3-(2-ethylphenoxy)-2,2-dimethylpropanamide], 79.4 nM.
Turning to `CC[C@H]1[C@H](NC(=O)C(C)(C)COc2ncccc2C(F)(F)F)CCN1C` (relative stereo) [Example 149, trans-N-(2-ethyl-1-methylpyrrolidin-3-yl)-2,2-dimethyl-3-((3-(trifluoromethyl)pyridin-2-yl)oxy)propanamide], the EC50 was 126 nM.
The same measure, in the same setting: the result for `CC(C)[C@@H]1CN(C)CC[C@H]1NC(=O)C(C)(C)COc1ncccc1C(F)(F)F` (relative stereo) [Example 33, trans-N-(3-isopropyl-1-methylpiperidin-4-yl)-2,2-dimethyl-3-((3-(trifluoromethyl)pyridin-2-yl)oxy)propanamide] reads 0.794 nM; that for `CN1CCC(NC(=O)C(C)(C)COc2cccnc2C(F)(F)F)CC1` [Example 52, 2,2-dimethyl-N-(1-methylpiperidin-4-yl)-3-((2-(trifluoromethyl)pyridin-3-yl)oxy)propanamide], 79.4 nM; that for `Cc1cnc(OCC(C)(C)C(=O)N[C@@H]2CN(C)C[C@H]2c2ccc(Cl)cc2)c(C)c1` (relative stereo) [Example 93, trans-N-(4-(4-chlorophenyl)-1-methylpyrrolidin-3-yl)-3-((3,5-dimethylpyridin-2-yl)oxy)-2,2-dimethylpropanamide], 200 nM.
